Laboratory results as given in ChEMBL document CHEMBL6134809 (Eur J Med Chem, 2025).
In brackets after ≈: the same amount, converted by molar mass. Activity calls are given as the source filed them. The rule behind the calls is not given here.

What was measured:
Pseudomonas aeruginosa [1] = experiment: Antibiofilm activity against Pseudomonas aeruginosa PAO1 assessed as […] biofilm biomass at 1/2 times MIC measured for 24 hrs by crystal violet staining; assay type: functional
Pseudomonas aeruginosa [2] = experiment: Inhibition of twitching motility in Pseudomonas aeruginosa PAO1 at 4.27 uM incubated for 16 hrs relative to control; assay type: functional
Staphylococcus aureus [3] = experiment: Antibacterial activity against Staphylococcus aureus ATCC 25923 assessed as bacterial growth inhibition by CLSI based broth microdilution method; assay type: functional
Staphylococcus aureus [4] = experiment: Antibacterial activity against methicillin-resistant Staphylococcus aureus ATCC 43300 assessed as bacterial growth inhibition by CLSI based broth microdilution method; assay type: functional
Pseudomonas aeruginosa [5] = experiment: Antibacterial activity against Pseudomonas aeruginosa PAO1 assessed as bacterial growth inhibition by CLSI based broth microdilution method; assay type: functional
Pseudomonas aeruginosa [6] = experiment: Antibiofilm activity against Pseudomonas aeruginosa PAO1 assessed as […] biofilm biomass at MIC measured for 24 hrs by crystal violet staining; assay type: functional
Pseudomonas aeruginosa [7] = experiment: Antibiofilm activity against Pseudomonas aeruginosa PAO1 assessed as […] biofilm biomass at 1/4 times MIC measured for 24 hrs by crystal violet staining; assay type: functional
Pseudomonas aeruginosa [8] = experiment: Inhibition of swarming motility in Pseudomonas aeruginosa PAO1 at 4.27 uM incubated for 16 hrs relative to control; assay type: functional
Pseudomonas aeruginosa [9] = experiment: Antibacterial activity against Pseudomonas aeruginosa 1167 assessed as bacterial growth inhibition by CLSI based broth microdilution method; assay type: functional
Pseudomonas aeruginosa [10] = experiment: Antibacterial activity against Pseudomonas aeruginosa 1121 assessed as bacterial growth inhibition by CLSI based broth microdilution method; assay type: functional
Pseudomonas aeruginosa [11] = experiment: Antibacterial activity against Pseudomonas aeruginosa FB assessed as bacterial growth inhibition by CLSI based broth microdilution method; assay type: functional
Pseudomonas aeruginosa [12] = experiment: Antibiofilm activity against Pseudomonas aeruginosa PAO1 measured for 24 hrs by crystal violet staining; assay type: functional
Staphylococcus aureus [13] = experiment: Antibacterial activity against methicillin-resistant Staphylococcus aureus ATCC 513045 assessed as bacterial growth inhibition by CLSI based broth microdilution method; assay type: functional
Pseudomonas aeruginosa [14] = experiment: Inhibition of swimming motility in Pseudomonas aeruginosa PAO1 at 4.27 uM incubated for 16 hrs relative to control; assay type: functional
Pseudomonas aeruginosa [15] = experiment: Antibacterial activity against Pseudomonas aeruginosa 1129 assessed as bacterial growth inhibition by CLSI based broth microdilution method; assay type: functional
Staphylococcus aureus [16] = experiment: Antibacterial activity against methicillin-resistant Staphylococcus aureus ATCC 515992 assessed as bacterial growth inhibition by CLSI based broth microdilution method; assay type: functional
Pseudomonas aeruginosa [17] = experiment: Antibiofilm activity against Pseudomonas aeruginosa assessed as reduction in biofilm eradication at 1/4 times MIC measured after 24 hrs by crystal violet staining based analysis; assay type: functional, organism-based
Pseudomonas aeruginosa [18] = experiment: Antivirulence activity against Pseudomonas aeruginosa PAO1 assessed as reduction in pyocyanin level at 4.27 uM incubated for 24 hrs by absorbance based assay relative to control; assay type: functional; set-up: scale not given: the % may be the effect or the level left
Pseudomonas aeruginosa [19] = experiment: Antibiofilm activity against Pseudomonas aeruginosa PAO1 assessed as reduction in biofilm formation at 1/4 times MIC measured for 24 hrs in presence of 10 uM of FeCl3 by crystal violet staining; assay type: functional; set-up: scale not given: the % may be the effect or the level left
Pseudomonas aeruginosa [20] = experiment: Antivirulence activity against Pseudomonas aeruginosa PAO1 assessed as reduction in rhamnolipid level at 4.27 uM incubated for 24 hrs by absorbance based assay relative to control; assay type: functional; set-up: scale not given: the % may be the effect or the level left
[21] = Toxicity in Caenorhabditis elegans infected with Pseudomonas aeruginosa PAO1 assessed as nematode survival at MIC incubated at 24 hrs relative to control
Pseudomonas aeruginosa [22] = experiment: Antibiofilm activity against Pseudomonas aeruginosa PAO1 assessed as reduction in biofilm formation at 1/2 times MIC measured for 24 hrs in presence of 40 uM of FeCl3 by crystal violet staining; assay type: functional; set-up: scale not given: the % may be the effect or the level left
[23] = Toxicity in Caenorhabditis elegans infected with Pseudomonas aeruginosa PAO1 assessed as nematode survival at MIC incubated at 48 hrs relative to control
Pseudomonas aeruginosa [24] = experiment: Antibacterial activity against wild type Pseudomonas aeruginosa PAO1 […] delta pvdS up to 8 times MIC; assay type: functional, organism-based
Pseudomonas aeruginosa [25] = experiment: Antivirulence activity against Pseudomonas aeruginosa PAO1 assessed as reduction in rhamnolipid level incubated for 24 hrs by absorbance based assay; assay type: functional, organism-based
Pseudomonas aeruginosa [26] = experiment: Potency index, ratio of ciprofloxacin MIC to test compound MIC for antibiofilm activity against Pseudomonas aeruginosa PAO1 assessed as […] biofilm biomass at 1/2 times MIC measured for 24 hrs by crystal violet staining; assay type: functional
Pseudomonas aeruginosa [27] = experiment: Selectivity ratio of MIC for antibacterial activity against Pseudomonas aeruginosa PAO1 overexpressing fpvA mutant up to 8 times MIC to MIC for antibacterial activity against Pseudomonas aeruginosa PAO1 up to 8 times MIC; assay type: functional
Pseudomonas aeruginosa [28] = experiment: Antibiofilm activity against Pseudomonas aeruginosa assessed as biofilm eradication at 4 times MIC measured after 24 hrs by crystal violet staining based analysis; assay type: functional
Pseudomonas aeruginosa [29] = experiment: Antibiofilm activity against Pseudomonas aeruginosa PAO1 assessed as reduction in biofilm formation at 1/2 times MIC measured for 24 hrs in presence of 10 uM of FeCl3 by crystal violet staining; assay type: functional; set-up: scale not given: the % may be the effect or the level left
Pseudomonas aeruginosa [30] = experiment: Inhibition of twitching motility in Pseudomonas aeruginosa PAO1 incubated for 16 hrs; assay type: functional, organism-based; details: dose 4.27 µM
[31] = Toxicity in Caenorhabditis elegans infected with Pseudomonas aeruginosa PAO1 assessed as nematode survival at MIC incubated at 12 hrs
Pseudomonas aeruginosa [32] = experiment: Antibiofilm activity against Pseudomonas aeruginosa PAO1 assessed as reduction in biofilm formation at MIC measured for 24 hrs in presence of 10 uM of FeCl3 by crystal violet staining; assay type: functional; set-up: scale not given: the % may be the effect or the level left
Pseudomonas aeruginosa [33] = experiment: Antivirulence activity against Pseudomonas aeruginosa PAO1 assessed as reduction in pyocyanin level incubated for 24 hrs by absorbance based assay; assay type: functional, organism-based
Pseudomonas aeruginosa [34] = experiment: Antivirulence activity against Pseudomonas aeruginosa PAO1 assessed as reduction in pyocyanin level in flask incubated for 24 hrs by absorbance based assay relative to control; assay type: functional, organism-based
HEK293 [35] = experiment: Cytotoxicity against HEK293 cells assessed as reduction in cell viability at 100 uM incubated for 16 hrs by MTT assay; assay type: toxicity, cell-based; details: human, hek293, 16 h
Pseudomonas aeruginosa [36] = experiment: Potency index, ratio of ciprofloxacin MIC to test compound MIC for antibacterial activity against Pseudomonas aeruginosa PAO1 assessed as bacterial growth inhibition by CLSI based broth microdilution method; assay type: functional
Pseudomonas aeruginosa [37] = experiment: Antibiofilm activity against Pseudomonas aeruginosa PAO1 assessed as reduction in biofilm formation at 1/4 times MIC measured for 24 hrs in presence of 40 uM of FeCl3 by crystal violet staining; assay type: functional; set-up: scale not given: the % may be the effect or the level left
Pseudomonas aeruginosa [38] = experiment: Antibacterial activity against wild type Pseudomonas aeruginosa PAO1 up to 8 times MIC; assay type: functional, organism-based
Pseudomonas aeruginosa [39] = experiment: Potency index, ratio of ciprofloxacin MIC to test compound MIC for antibiofilm activity against Pseudomonas aeruginosa PAO1 measured for 24 hrs by crystal violet staining; assay type: functional
A549 = experiment: Cytotoxicity against human A549 cells assessed as reduction in cell viability up to 100 uM incubated for 16 hrs by MTT assay; assay type: toxicity, cell-based; details: a549, 16 h
Pseudomonas aeruginosa [40] = experiment: Antibiofilm activity against Pseudomonas aeruginosa PAO1 assessed as reduction in biofilm formation at MIC measured for 24 hrs in presence of 40 uM of FeCl3 by crystal violet staining; assay type: functional; set-up: scale not given: the % may be the effect or the level left
HEK293 [41] = experiment: Cytotoxicity against HEK293 cells assessed as reduction in cell viability at 100 uM incubated for 16 hrs by MTT assay relative to control; assay type: toxicity, cell-based; details: human, hek293, 16 h
Pseudomonas aeruginosa [42] = experiment: Antibacterial activity against Pseudomonas aeruginosa PAO1 overexpressing fpvA mutant up to 8 times MIC; assay type: functional, organism-based

Structure (SMILES): COC(=O)c1cn(C2CC2)c2cc(N3CCNCC3)c(F)cc2c1=O
- Activity (Pseudomonas aeruginosa [1]): 145.2%
- inhibition (Pseudomonas aeruginosa [2]): inactive
- MIC (Staphylococcus aureus [3]): > 200 µM
- MIC (Staphylococcus aureus [4]): > 200 µM
- MIC (Pseudomonas aeruginosa [5]): 185 µM (≈ 64 µg/mL)
- Activity (Pseudomonas aeruginosa [6]): 109.7%
- Activity (Pseudomonas aeruginosa [7]): 122.4%
- inhibition (Pseudomonas aeruginosa [8]): inactive
- MIC (Pseudomonas aeruginosa [9]): 185 µM (≈ 64 µg/mL)
- MIC (Pseudomonas aeruginosa [10]): > 200 µM
- MIC (Pseudomonas aeruginosa [11]): > 200 µM
- MIC (Pseudomonas aeruginosa [12]): 185 µM (≈ 64 µg/mL)
- MIC (Staphylococcus aureus [13]): > 200 µM
- inhibition (Pseudomonas aeruginosa [14]): inactive
- MIC (Pseudomonas aeruginosa [15]): > 200 µM
- MIC (Staphylococcus aureus [16]): > 200 µM

Structure (SMILES): Cc1cc(=O)c(O)c(CNC(=O)c2cn(C3CC3)c3cc(N4CCNCC4)c(F)cc3c2=O)n1C
- Activity (Pseudomonas aeruginosa [1]): 78.1%
- MIC (Staphylococcus aureus [3]): 34.2 µM (≈ 16.5 µg/mL)
- MIC (Staphylococcus aureus [4]): 34.2 µM (≈ 16.5 µg/mL)
- MIC (Pseudomonas aeruginosa [5]): 17.1 µM (≈ 8.24 µg/mL)
- Activity (Pseudomonas aeruginosa [6]): 75.3%
- Activity (Pseudomonas aeruginosa [7]): 93.6%
- MIC (Pseudomonas aeruginosa [9]): 17.1 µM (≈ 8.24 µg/mL)
- MIC (Pseudomonas aeruginosa [10]): 68.5 µM (≈ 33 µg/mL)
- MIC (Pseudomonas aeruginosa [11]): 68.5 µM (≈ 33 µg/mL)
- MIC (Pseudomonas aeruginosa [12]): 66.5 µM (≈ 32 µg/mL)
- MIC (Staphylococcus aureus [13]): 68.5 µM (≈ 33 µg/mL)
- MIC (Pseudomonas aeruginosa [15]): 34.2 µM (≈ 16.5 µg/mL)
- MIC (Staphylococcus aureus [16]): > 200 µM

Structure (SMILES): Cn1cc(O)c(=O)cc1COC(=O)c1cn(C2CC2)c2cc(N3CCNCC3)c(F)cc2c1=O
- Activity (Pseudomonas aeruginosa [1]): 38.3%
- Activity (Pseudomonas aeruginosa [17]): Active
- Activity (Pseudomonas aeruginosa [18]): ~20%
- inhibition at 4.27 µM (Pseudomonas aeruginosa [2]): 44.6%
- MIC (Staphylococcus aureus [3]): 4.27 µM (≈ 2 µg/mL)
- MIC (Staphylococcus aureus [4]): 2.13 µM (≈ 0.998 µg/mL)
- Activity (Pseudomonas aeruginosa [19]): 42.4%
- MIC (Pseudomonas aeruginosa [5]): 1.07 µM (≈ 0.501 µg/mL)
- Activity (Pseudomonas aeruginosa [20]): ~20%
- Activity (Pseudomonas aeruginosa [6]): 52.8%
- Activity [21]: Toxic
- Activity (Pseudomonas aeruginosa [7]): 42.4%
- Activity (Pseudomonas aeruginosa [22]): 204.8%
- inhibition at 4.27 µM (Pseudomonas aeruginosa [8]): 53.7%
- MIC (Pseudomonas aeruginosa [9]): 2.13 µM (≈ 0.998 µg/mL)
- survival at 48 h [23]: 50%
- Activity (Pseudomonas aeruginosa [24]): inactive
- Activity (Pseudomonas aeruginosa [25]): Active
- Ratio (Pseudomonas aeruginosa [26]): 3
- Ratio (Pseudomonas aeruginosa [27]): 2
- Activity (Pseudomonas aeruginosa [28]): 75.7%
- Activity (Pseudomonas aeruginosa [29]): 38.3%
- MIC (Pseudomonas aeruginosa [10]): 2.13 µM (≈ 0.998 µg/mL)
- inhibition (Pseudomonas aeruginosa [30]): Dose-dependent-effect
- Activity [31]: Non-toxic
- Activity (Pseudomonas aeruginosa [32]): 52.8%
- Activity (Pseudomonas aeruginosa [33]): Active
- Activity (Pseudomonas aeruginosa [34]): Active
- MIC (Pseudomonas aeruginosa [11]): 2.13 µM (≈ 0.998 µg/mL)
- Activity (HEK293 [35]): Non-toxic
- MIC (Pseudomonas aeruginosa [12]): 8.54 µM (≈ 4 µg/mL)
- Ratio (Pseudomonas aeruginosa [36]): 3
- MIC (Staphylococcus aureus [13]): 4.27 µM (≈ 2 µg/mL)
- Activity (Pseudomonas aeruginosa [37]): 197.5%
- Activity (Pseudomonas aeruginosa [38]): inactive
- inhibition at 4.27 µM (Pseudomonas aeruginosa [14]): 64.9%
- Ratio (Pseudomonas aeruginosa [39]): 8
- Activity (A549): Non-toxic
- Activity (Pseudomonas aeruginosa [40]): 179.6%
- MIC (Pseudomonas aeruginosa [15]): 4.27 µM (≈ 2 µg/mL)
- MIC (Staphylococcus aureus [16]): > 200 µM

Structure (SMILES): Cn1cc(O)c(=O)cc1CNC(=O)c1cn(C2CC2)c2cc(N3CCNCC3)c(F)cc2c1=O
- Activity (Pseudomonas aeruginosa [1]): 82.4%
- MIC (Staphylococcus aureus [3]): 16.6 µM (≈ 7.77 µg/mL)
- MIC (Staphylococcus aureus [4]): 16.6 µM (≈ 7.77 µg/mL)
- MIC (Pseudomonas aeruginosa [5]): 8.31 µM (≈ 3.88 µg/mL)
- Activity (Pseudomonas aeruginosa [6]): 71.6%
- Activity (Pseudomonas aeruginosa [7]): 88.5%
- MIC (Pseudomonas aeruginosa [9]): 8.31 µM (≈ 3.88 µg/mL)
- MIC (Pseudomonas aeruginosa [10]): 16.6 µM (≈ 7.77 µg/mL)
- MIC (Pseudomonas aeruginosa [11]): 8.31 µM (≈ 3.88 µg/mL)
- MIC (Pseudomonas aeruginosa [12]): 68.5 µM (≈ 32 µg/mL)
- Ratio (Pseudomonas aeruginosa [36]): 3
- MIC (Staphylococcus aureus [13]): 33.2 µM (≈ 15.5 µg/mL)
- MIC (Pseudomonas aeruginosa [15]): 16.6 µM (≈ 7.77 µg/mL)
- MIC (Staphylococcus aureus [16]): > 200 µM

Structure (SMILES): O=C(O)c1cn(C2CC2)c2cc(N3CCNCC3)c(F)cc2c1=O [CIPROFLOXACIN]
- Activity (Pseudomonas aeruginosa [28]): 42.6%
- Activity (HEK293 [41]): 40%
- Activity (Pseudomonas aeruginosa [37]): 89.5%
- Activity (Pseudomonas aeruginosa [42]): Active
